Patent US8952024B2, “Herbicidal pyrimidone derivatives” (E I du Pont de Nemours and Company, priority 2009, dated 2015)

Columns and labels:
Assay type in all cases: in vivo
[1] = system: barnyardgrass (Echinochloa crus-galli); experiment: Test A pre-/postemergence plant response
In short: (§1)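 Visual injury rating on a 0–100 scale (0 = no effect, 100 = complete control) was made versus untreated controls after about ten days in the greenhouse. Compounds, formulated in a non-phytotoxic solvent mix containing surfactant, were sprayed preemergence onto loam/sand soil and postemergence onto one- to two-leaf plants.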

corn (Zea mays) = experiment: Test A pre-/postemergence plant response
In short: as §1

[2] = system: giant foxtail (Setaria faberii); experiment: Test A pre-/postemergence plant response
In short: as §1

[3] = system: large crabgrass (Digitaria sanguinalis); experiment: Test A pre-/postemergence plant response
In short: as §1

[4] = system: morningglory (Ipomoea spp.); experiment: Test A pre-/postemergence plant response
In short: as §1

[5] = system: pigweed (Amaranthus retroflexus); experiment: Test A pre-/postemergence plant response
In short: as §1

[6] = system: velvetleaf (Abutilon theophrasti); experiment: Test A pre-/postemergence plant response
In short: as §1

[7] = system: wheat (Triticum aestivum); experiment: Test A pre-/postemergence plant response
In short: as §1

[8] = system: cocklebur (Xanthium strumarium); experiment: Test B pre-/postemergence plant response
Text: (§2) Seeds of plant species selected from blackgrass (Alopecurus myosuroides), downy bromegrass (Bromus tectorum), green foxtail (Setaria viridis), Italian ryegrass (Lolium multiflorum), wheat (Triticum aestivum), wild oat (Avena fatua), deadnettle (henbit deadnettle, Lamium amplexicaule), galium (catchweed bedstraw, Galium aparine), bermudagrass (Cynodon dactylon), Surinam grass (Brachiaria decumbens), cocklebur (Xanthium strumarium), corn (Zea mays), large crabgrass (Digitaria sanguinalis), woolly cupgrass (Eriochloa villosa), giant foxtail (Setaria faberii), goosegrass (Eleusine indica), johnsongrass (Sorghum halepense), kochia (Kochia scoparia), lambsquarters (Chenopodium album), morningglory (Ipomoea coccinea), nightshade (eastern black nightshade, Solanum ptycanthum), yellow nutsedge (Cyperus esculentus), pigweed (Amaranthus retroflexus), ragweed (common ragweed, Ambrosia elatior), Russian thistle (Salsola kali), soybean (Glycine max), sunflower (common oilseed sunflower, Helianthus annuus) and velvetleaf (Abutilon theophrasti) were planted into a blend of loam soil and sand and treated preemergence with test compounds formulated in a non-phytotoxic solvent mixture which included a surfactant.
(§3) At the same time, plants selected from these crop and weed species and also winter barley (Hordeum vulgare), canarygrass (Phalaris minor), chickweed (Stellaria media) and windgrass (Apera spica-venti) were planted in pots containing Redi-Earth® planting medium (Scotts Company, 14111 Scottslawn Road, Marysville, Ohio 43041) comprising spaghnum peat moss, vermiculite, wetting agent and starter nutrients and treated with postemergence applications of some of the test chemicals formulated in the same manner. Plants ranged in height from 2 to 18 cm (1- to 4-leaf stage) for postemergence treatments.
(§4) Treated plants and controls were maintained in a greenhouse for 13 to 15 days, after which time all treated plants were visually evaluated and compared to controls. Plant response ratings, summarized in Table B, are based on a scale of 0 to 100 where 0 is no effect and 100 is complete control. A dash (-) response means no test result.

[9] = system: giant foxtail (Setaria faberii); experiment: Test B pre-/postemergence plant response
Text: as §2, §3, §4

[10] = system: green foxtail (Setaria viridis); experiment: Test B pre-/postemergence plant response
Text: as §2, §3, §4

[11] = Postemergence, 125 g ai/ha, visual injury, 0 to 100 scale (0 no effect, 100 complete control), approx. ten days
[12] = Postemergence, 500 g ai/ha, 0 to 100 scale, 0 = no effect, 100 = complete control, approx. ten days
[13] = Preemergence, 125 g ai/ha, 0 to 100 scale, 0 = no effect, 100 = complete control
[14] = Preemergence, 500 g ai/ha, visual injury, 0 to 100 scale (0 no effect, 100 complete control), approx. ten days
[15] = 31 g ai/ha, postemergence, scale 0 to 100, 0 is no effect, 100 is complete control
[16] = Postemergence, 62 g ai/ha, scale 0 (no effect) to 100 (complete control), 13 to 15 days
[17] = Postemergence, 125 g ai/ha, visual rating after 13 to 15 days, scale 0 (no effect) to 100 (complete control)
[18] = Postemergence, 250 g ai/ha, scale 0 to 100 (0 no effect, 100 complete control)
[19] = Preemergence, 62 g ai/ha, scale 0 to 100, 0 no effect, 100 complete control
[20] = Preemergence, 125 g ai/ha, 0 to 100 scale
[21] = 250 g ai/ha, Preemergence, 0 to 100 scale
[22] = Preemergence, 31 g ai/ha, scale 0 to 100 (0 no effect, 100 complete control)

CCCn1c(-c2ccccc2)ncc(C(=O)C2=C(O)CCCC2=O)c1=O [Compound 50]
50: Plant response rating, Barnyardgrass [1, 13] | Plant response rating, Foxtail, Giant [2, 13] | Plant response rating, Foxtail, Green [10, 22] | Plant response rating, Foxtail, Green [10, 19]
40: Plant response rating, Morningglory [4, 13]
0: Corn plant response rating (corn (Zea mays); [11]) | Plant response rating, Corn (corn (Zea mays); [13]) | Plant response rating, Corn (corn (Zea mays); [14]) | Wheat plant response rating [7, 11] | Plant response rating, Wheat [7, 12] | Plant response rating, Wheat [7, 13] | Plant response rating, Wheat [7, 14]
45: Plant response rating, Foxtail, Giant [9, 22]
80: Plant response rating, Foxtail, Giant [2, 14] | Morningglory plant response rating [4, 11] | Plant response rating, Morningglory [4, 12] | Plant response rating, Morningglory [4, 14] | Plant response rating, Velvetleaf [6, 13] | Plant response rating, Foxtail, Green [10, 15] | Plant response rating, Foxtail, Green [10, 16]
100: Plant response rating, Barnyardgrass [1, 12] | Plant response rating, Crabgrass, Large [3, 14] | Pigweed plant response rating [5, 11] | Plant response rating, Pigweed [5, 12] | Plant response rating, Pigweed [5, 14] | Velvetleaf plant response rating [6, 11] | Plant response rating, Velvetleaf [6, 12] | Plant response rating, Foxtail, Green [10, 21]
30: Plant response rating, Corn (corn (Zea mays); [12])
75: Plant response rating, Cocklebur [8, 19] | Cocklebur plant response rating [8, 20] | Plant response rating, Foxtail, Giant [9, 15] | Plant response rating, Foxtail, Giant [9, 19]
90: Barnyardgrass plant response rating [1, 11] | Plant response rating, Barnyardgrass [1, 14] | Foxtail, Giant plant response rating [2, 11] | Plant response rating, Foxtail, Giant [2, 12] | Crabgrass, Large plant response rating [3, 11] | Plant response rating, Crabgrass, Large [3, 12] | Plant response rating, Crabgrass, Large [3, 13] | Plant response rating, Pigweed [5, 13] | Plant response rating, Velvetleaf [6, 14] | Plant response rating, Cocklebur [8, 17] | Plant response rating, Cocklebur [8, 18] | Plant response rating, Foxtail, Giant [9, 21] | Foxtail, Giant plant response rating [9, 20]
85: Plant response rating, Cocklebur [8, 15] | Plant response rating, Cocklebur [8, 16] | Plant response rating, Foxtail, Giant [9, 16]
95: Plant response rating, Foxtail, Giant [9, 17] | Plant response rating, Foxtail, Giant [9, 18] | Plant response rating, Foxtail, Green [10, 17] | Plant response rating, Foxtail, Green [10, 18] | Foxtail, Green plant response rating [10, 20]
